Experimental data taken from PubChem BioAssay (NCI).
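Results reflect a 48-hour exposure of cells in 96-well plates to compound at five concentrations. Definition used: TGI = concentration required for complete inhibition of growth.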

Key:
Assay in all cases: inhibition of tumour cell growth, NCI panel, 48 h
[1] = tested on: SK-OV-3 ovarian
[2] = tested on: SR leukemia
[3] = tested on: CAKI-1 renal
[4] = tested on: ACHN renal
[5] = tested on: LXFL 529 NSCLC
[6] = tested on: RXF-631 renal
[7] = tested on: 786-0 renal
[8] = tested on: A498 renal
[9] = tested on: SF-295 CNS
[10] = tested on: SF-539 CNS
[11] = tested on: NCI-H522 lung
[12] = tested on: LOX IMVI melanoma
[13] = tested on: UO-31 renal
[14] = tested on: M19-MEL melanoma
[15] = tested on: SNB-75 CNS
[16] = tested on: A549 NSCLC
[17] = tested on: SN12C renal
[18] = tested on: HCT-116 colon
[19] = tested on: UACC-62 melanoma
[20] = tested on: OVCAR-3 ovarian
[21] = tested on: SK-MEL-5 melanoma
[22] = tested on: K-562 leukemia
[23] = tested on: SK-MEL-2 melanoma
[24] = tested on: HOP-18 NSCLC
[25] = tested on: HCC-2998 colon
[26] = tested on: OVCAR-4 ovarian
[27] = tested on: DMS 114 small cell lung
[28] = tested on: SNB-19 CNS
[29] = tested on: SK-MEL-28 melanoma
[30] = tested on: KM12 colon
[31] = tested on: TK-10 renal
[32] = tested on: HL-60(TB) leukemia
[33] = tested on: RPMI-8226 leukemia
[34] = tested on: HCT-15 colon
[35] = tested on: DMS 273 small cell lung
[36] = tested on: M14 melanoma
[37] = tested on: U251 CNS
[38] = tested on: HOP-62 NSCLC
[39] = tested on: SF-268 CNS
[40] = tested on: HT29 colon
[41] = tested on: COLO 205 colon
[42] = tested on: OVCAR-8 ovarian
[43] = tested on: NCI-H226 lung
[44] = tested on: SNB-78 CNS
[45] = tested on: SW-620 colon
[46] = tested on: EKVX NSCLC
[47] = tested on: NCI-H23 lung
[48] = tested on: HOP-92 NSCLC
[49] = tested on: MOLT-4 leukemia
[50] = tested on: RXF 393 renal
[51] = tested on: MALME-3M melanoma
[52] = tested on: DLD-1 colon
[53] = tested on: XF 498 CNS
[54] = tested on: KM20L2 colon
[55] = tested on: UACC-257 melanoma
[56] = tested on: IGROV1 ovarian
[57] = tested on: OVCAR-5 ovarian
[58] = tested on: NCI-H460 lung
[59] = tested on: CCRF-CEM leukemia

Measured: TGI

O=c1[nH]c2nc3ccccc3n2c(O)c1-c1ccccc1
> 100 µM: all assays above

NC(=Nc1ccc(S(=O)(=O)Nc2cnc3ccccc3n2)cc1)/N=C(/N)Nc1ccc(Br)cc1
not listed: [18] | [32] | [50]
> 100 µM: all other assays above
